# According to patent publication US9518240B2, “Process for the treatment of liquefied hydrocarbons using 3-(piperazine-1-YL)propane-1,2-diol compounds” (Dow Global Technologies LLC, priority 2012, dated 2016):
# Columns and labels:
# [1] = heptane 10 g, toluene 0.1 g (internal standard), amine 2.5 g; mixed at 20° C. for 1 hour, decanted 15 minutes; average of three injections
# Method: A solution of heptane (10 g), toluene (0.1 g) and the tested amine (2.5 g) are mixed at 20° C. for 1 hour. The mixture is decanted for 15 minutes and the neat heptane phase is analyzed by gas chromatography using toluene as internal standard.
# [2] = pKa by automated Mettler Toledo titration; conditions: water (50 weight % aqueous amine solution)
Structure (SMILES),area counts (averaged GC peak area of tested amine in neat heptane phase) [1],pKa [2]
C1CNCCN1 [Piperazine],13748 area counts,
"OCC(O)CN1CCNCC1 (stereo not drawn) [PPD, 3-(piperazine-1-YL)propane-1,2-diol]",132 area counts,9.5
